Laboratory results taken from ChEMBL document CHEMBL1201862, “PubChem BioAssay data set” (2004).
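Dose response: 5 concentrations. Exposure: 48 h. Format: 96-well plates. Endpoint: linear interpolation; highest concentration if not reached. The concentration for 50% growth inhibition is given as GI50.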 The source made the active and inactive calls. Rule as the data show it: active = GI50 up to about 1.1 µM and inactive = higher.

Key:
Experiment in all cases: growth of human tumour cells (NCI), 48 h
MCF7 = tested on: MCF7
OVCAR-3 = tested on: OVCAR-3
SR = tested on: SR
HCC 2998 = tested on: HCC 2998
OVCAR-4 = tested on: OVCAR-4
SNB-19 = tested on: SNB-19
SK-MEL-5 = tested on: SK-MEL-5
HL-60 = tested on: HL-60
T47D = tested on: T47D
KM12 = tested on: KM12
MDA-N = tested on: MDA-N
SF-295 = tested on: SF-295
M14 = tested on: M14
OVCAR-5 = tested on: OVCAR-5
HOP-62 = tested on: HOP-62
K562 = tested on: K562
NCI-H226 = tested on: NCI-H226
COLO 205 = tested on: COLO 205
U-251 = tested on: U-251
MOLT-4 = tested on: MOLT-4

SMILES | GI50 (MCF7) | GI50 (OVCAR-3) | GI50 (SR) | GI50 (HCC 2998) | GI50 (OVCAR-4) | GI50 (SNB-19) | GI50 (SK-MEL-5) | GI50 (HL-60) | GI50 (T47D) | GI50 (KM12) | GI50 (MDA-N) | GI50 (SF-295) | GI50 (M14) | GI50 (OVCAR-5) | GI50 (HOP-62) | GI50 (K562) | GI50 (NCI-H226) | GI50 (COLO 205) | GI50 (U-251) | GI50 (MOLT-4)
COc1cc(C(=O)Nc2nnc(S(N)(=O)=O)s2)cc(OC)c1OC | > 100 µM (inactive) | > 100 µM (inactive) | > 100 µM (inactive) | > 100 µM (inactive) | > 100 µM (inactive) | > 100 µM (inactive) | > 100 µM (inactive) | > 100 µM (inactive) | > 100 µM (inactive) | > 100 µM (inactive) | > 100 µM (inactive) | > 100 µM (inactive) | > 100 µM (inactive) | > 100 µM (inactive) | > 100 µM (inactive) | > 100 µM (inactive) | > 100 µM (inactive) | > 100 µM (inactive) | > 100 µM (inactive) | > 100 µM (inactive)
O=c1oc2ccccc2c(-c2ccc(O)cc2)c1Oc1ccccc1 | 11.2 µM (inactive) | 17.5 µM (inactive) | 41.8 µM (inactive) | 7.21 µM (inactive) | 20.4 µM (inactive) | 17.7 µM (inactive) | 14.1 µM (inactive) | 54 µM (inactive) | > 100 µM (inactive) | 23.6 µM (inactive) | 14.3 µM (inactive) | 22 µM (inactive) | 9.16 µM (inactive) | 18.8 µM (inactive) | 24.1 µM (inactive) | 34.6 µM (inactive) | > 47 µM (inactive) | 29.4 µM (inactive) | 8.51 µM (inactive) | 28.8 µM (inactive)
C=CCOC(=O)[C@@H]1C[C@@H](OC(C)(C)C)CN1C(=O)[C@@H]1[C@H]2OC(C)(C)O[C@H]2CN1C(=O)OCC1c2ccccc2-c2ccccc21 | 48.4 µM (inactive) | 17.9 µM (inactive) | 8.05 µM (inactive) | 17.1 µM (inactive) | 17.2 µM (inactive) | 16.9 µM (inactive) | 18.9 µM (inactive) | 11 µM (inactive) | 19.4 µM (inactive) | 2.86 µM (inactive) | 18.1 µM (inactive) | 17.9 µM (inactive) | 19.7 µM (inactive) | 16.9 µM (inactive) | 1.75 µM (inactive) | 11 µM (inactive) | 21.5 µM (inactive) | 18.1 µM (inactive) | 12.6 µM (inactive) | 15.6 µM (inactive)
CS(=O)(=O)Nc1ccc2ccccc2c1 | > 100 µM (inactive) | > 100 µM (inactive) | > 100 µM (inactive) | > 100 µM (inactive) | > 100 µM (inactive) | > 100 µM (inactive) | > 100 µM (inactive) | > 100 µM (inactive) | > 100 µM (inactive) | > 100 µM (inactive) | > 100 µM (inactive) | > 100 µM (inactive) | > 100 µM (inactive) | > 100 µM (inactive) | 95.7 µM (inactive) | > 100 µM (inactive) | 79.4 µM (inactive) | > 100 µM (inactive) | > 100 µM (inactive) | > 100 µM (inactive)
O=c1c2ccccc2c2ccccc2c(=O)n1Cc1ccc2c(c1)OCO2 | 38.9 µM (inactive) | 24.6 µM (inactive) | 4.91 µM (inactive) | 25.1 µM (inactive) | > 67.3 µM (inactive) | 52.1 µM (inactive) | 20.3 µM (inactive) | 11.4 µM (inactive) | 39.9 µM (inactive) | 19.5 µM (inactive) | 10.1 µM (inactive) | 35.4 µM (inactive) | 26.9 µM (inactive) | 34 µM (inactive) | 62.1 µM (inactive) | 7.45 µM (inactive) | 56.1 µM (inactive) | 34 µM (inactive) | > 62.2 µM (inactive) | 12.9 µM (inactive)
Cc1cc2nc(-c3c(F)cccc3F)n(Cc3c(F)cccc3F)c2cc1C | 15.2 µM (inactive) | 16.4 µM (inactive) | 11.3 µM (inactive) | 9.71 µM (inactive) | 15 µM (inactive) | 19.5 µM (inactive) | 13.6 µM (inactive) | 16.3 µM (inactive) | 14.8 µM (inactive) | 14.8 µM (inactive) | 16 µM (inactive) | 13.4 µM (inactive) | 12.2 µM (inactive) | 16.6 µM (inactive) | 14.4 µM (inactive) | 11 µM (inactive) | 15.7 µM (inactive) | 15.2 µM (inactive) | 11.1 µM (inactive) | 13.1 µM (inactive)
COC(=O)[C@]1(c2cc3ccccc3n2S(=O)(=O)c2ccccc2)CC2CN(C(C)=O)C1CC2=O (stereo not given in full) | 1.69 µM (inactive) | 1.99 µM (inactive) | 1.59 µM (inactive) | 3.23 µM (inactive) | 3.58 µM (inactive) | 3.26 µM (inactive) | 3.27 µM (inactive) | 1.34 µM (inactive) | 2.16 µM (inactive) | 2.69 µM (inactive) | 2.79 µM (inactive) | 12.6 µM (inactive) | 1.96 µM (inactive) | 3.3 µM (inactive) | 5.08 µM (inactive) | 1.98 µM (inactive) | 2.17 µM (inactive) | 2.42 µM (inactive) | 1.6 µM (inactive) | 0.855 µM (active)
N#Cc1cc([N+](=O)[O-])ccc1NC(=O)/C(=N\NC(=O)c1ccncc1)C(c1cnc2ccc([N+](=O)[O-])cc2n1)[N+](=O)[O-] (stereo not given) | 1.55 µM (inactive) | 1.64 µM (inactive) | 4.24 µM (inactive) | 9.27 µM (inactive) | 2.09 µM (inactive) | 2.83 µM (inactive) | 0.869 µM (active) | 3.51 µM (inactive) | 3.37 µM (inactive) | 2.39 µM (inactive) | 0.512 µM (active) | 1.78 µM (inactive) | 1.63 µM (inactive) | 9.4 µM (inactive) | 2.81 µM (inactive) | 2.02 µM (inactive) | 2.45 µM (inactive) | 5.69 µM (inactive) | 2.15 µM (inactive) | 7.23 µM (inactive)
CC1=NN(c2ccc(S(=O)(=O)O)cc2)C2(C1)C(Cl)C(=O)N2c1nc2ccccc2s1 (stereo not given) | > 100 µM (inactive) | 68.4 µM (inactive) | > 100 µM (inactive) | > 100 µM (inactive) | > 100 µM (inactive) | > 100 µM (inactive) | > 100 µM (inactive) | > 100 µM (inactive) | 59.8 µM (inactive) | > 100 µM (inactive) | > 100 µM (inactive) | > 100 µM (inactive) | > 100 µM (inactive) | > 100 µM (inactive) | 91.2 µM (inactive) | > 100 µM (inactive) | 21.4 µM (inactive) | > 100 µM (inactive) | > 100 µM (inactive) | > 100 µM (inactive)
O=c1cc(-c2ccccc2F)[nH]c2cc3c(cc12)OCO3 | 0.0953 µM (active) | 0.0341 µM (active) | 0.0147 µM (active) | 0.107 µM (active) | > 24.6 µM (inactive) | 0.202 µM (active) | 0.0211 µM (active) | 0.0454 µM (active) | > 100 µM (inactive) | 0.0344 µM (active) | < 0.01 µM (active) | 0.0993 µM (active) | 0.0528 µM (active) | 1.31 µM (inactive) | 0.19 µM (active) | 0.0628 µM (active) | 0.184 µM (active) | 0.0512 µM (active) | 0.0995 µM (active) | 0.245 µM (active)
